“And” between values parts separate entries of the source, which are not always exact repeats. Equal values may be shown once.
Tests used:
Type in all cases: in vivo, human
[1] = test system: patients with symptomatic oHCM; assay: Open-label extension: background therapy reduction/withdrawal (BTR/W)
Description: Patients were dosed following the protocol of Example 3a or Example 3b. Patients were classified as receiving SoC therapy (both first line and second line) if treated with at least one beta-blocker (BB), non-dihydropyridine calcium channel blocker (CCB), or disopyramide. […] Successful BTR/W was defined as at least a dose-reduction of one medication to ≤50% of baseline. Serial metrics were collected per protocol but side effects specifically related to SoC therapy were not.

[2] = test system: healthy adults; assay: Phase 1 echocardiography pharmacodynamics (LVEF)
Description: Echocardiography. For PD assessments of LVEF, echocardiograms for the SAD and MAD cohorts were interpreted by the echocardiography core laboratory and used for all data analysis and dose level review decisions while immediate local interpretation of the echocardiograms was performed for safety monitoring. […] Echocardiograms on day 3 (48 h after dosing) were obtained only if the 24 h LVEF had not returned to near or above baseline, as determined by the investigator. In the MAD cohorts, echocardiograms were obtained on day −1, pre-dose on day 1, and at 1.5 h post dose on days 2, 4, and 9, and at 1.5, 24, and 72 h post dose on day 14 (for the 5-mg and 10-mg cohorts) or on day 17 (for the 7.5-mg cohort). Echocardiograms were obtained 3 days after the last dose (on day 17 or 20) only if the participant's prior LVEF was not near or above baseline, as determined by the investigator. […] Descriptive statistics of the echocardiographic parameters were generated using SAS® Version 9.3 or higher. Dose-response analysis was performed using analysis of covariance (ANCOVA) to identify the least-squares mean difference (aficamten minus placebo). To analyze the impact of drug dose on echocardiographic parameters in the SAD and MAD cohorts, an inferential analysis was conducted on the PD analysis set using linear mixed models for repeated-measures analysis of covariance (ANCOVA). The ANCOVA used baseline value as a covariate, included treatment, time-point, and time-point-by-treatment interaction as fixed effects, and change from baseline as the dependent variable. The unstructured variance-covariance structure was used, and the model accounted for the time-point repeated measures. The ANCOVA analysis was conducted separately for each study part and for each PD parameter. The least-squares means, the difference in least squares means (active minus placebo), and the associated 2-sided 95% CIs were presented for each comparison. Analyses of concentration ‘bin’ and exposure-response were also performed using ANCOVA. SAS® PROC MIXED was used for all comparative analyses. […] A concentration bin ANCOVA was conducted using linear mixed models for repeated-measures analyses with concentration bin group as a fixed effect, baseline PD parameters as a covariate, change from baseline as the dependent variable, and a random intercept to adjust for the repeated measures. The unstructured variance-covariance structure was used. […] The ANCOVA compared the change in PD parameters between each bin versus the pooled placebo group. The least-squares means, the difference in least squares means (bin group minus placebo), and the associated 2-sided 95% CIs were presented for each comparison. The ANCOVA analysis was conducted separately for each study part. For all time-points at which both PK data and PD measures were available, the time-points were pooled for the analysis. […] From least to greatest, the data were then divided into 5 groups of observations (‘bins’), each consisting of 20% of the data points. Each bin was treated as a separate group. […] The above analysis was then repeated using concentration as a continuous variable to estimate the exposure-response trend. Both a random intercept effect and a random concentration effect were added to the ANCOVA. The estimate of the concentration slope, with corresponding 2-sided 95% CIs, and the ANCOVA analyses were presented for each study part.

[3] = test system: patients with symptomatic oHCM; assay: Open-label extension: cardiac biomarkers (NT-proBNP, hs-cTnI); settings: Week 48
Description: At Weeks 4, 6, 12, and every 12 weeks thereafter, each patient has an echocardiogram or truncated echocardiogram following administration of their dose (a truncated echocardiogram at weeks 4 and 6; and an echocardiogram at week 12 and every 12 weeks thereafter) to determine whether additional dose titration is needed (see Table 21 and Table 22). Patient reported outcomes, laboratory assessments, measurements of NT-proBNP, hs-cTnI, and other biomarkers are performed at week 12 and every 12 weeks thereafter. Ambulatory cardiac monitoring is performed on weeks 48, 96, 144, 192 and 240 Cardiac magnetic resonance is monitored at weeks 48, 144 and 240. If a patient develops an LVEF <40% after the Week 2 visit, a repeat echocardiogram may be performed to confirm the initial finding (preferably within 24 hours). If the echocardiography findings are confirmed, the patient will undergo a ≥2-day drug holiday.

[4] = SAD 50 mg (n = 11), change from baseline at […]

Compound: CCc1nc(-c2ccc3c(c2)CC[C@H]3NC(=O)c2cnn(C)c2)no1 [aficamten, (R)—N-(5-(5-ethyl-1,2,4-oxadiazol-3-yl)-2,3-dihydro-1H-inden-1-yl)-1-methyl-1H-pyrazole-4-carboxamide]
- patients achieving any successful BTR/W among those attempted ([1]; 17 of 20 patients with attempted BTR/W): 85%
- patients who completely discontinued at least one SoC medication ([1]; BTR/W): 10 patients
- patients who withdrew from all SoC (aficamten monotherapy) ([1]; BTR/W): 5 patients
- NT-pro B-type Natriuretic Peptide ([1]; post-BTR/W): 532 ± 934 pg/mL
- high-sensitivity troponin I ([1]; post-BTR/W): 5.1 ± 1.6 ng/L
- mean HR after BTR/W ([1]; post-BTR/W (N=14)): 74±10 bpm
- mean Valsalva LVOT-G after BTR/W ([1]; post-BTR/W (N=14)): 42±26 mmHg
- increase in Valsalva LVOT-G after BTR/W ([1]; pre- vs post-BTR/W (N=14)): 15 mmHg
- increase in resting HR after BTR/W ([1]; pre- vs post-BTR/W (N=14)): 12 bpm
- NT-pro B-type Natriuretic Peptide ([1]; pre-BTR/W): 321 ± 424 pg/mL
- high-sensitivity troponin I ([1]; pre-BTR/W): 4.8 ± 1.8 ng/L
- patients with unsuccessful attempted BTR/W ([1]; reinstitution of BB): 3 patients
- plasma aficamten concentration with minimal suppression of LVEF in most participants ([2]; MAD cohorts): < 180 ng/mL
- time within which LVEF returned to baseline in participants whose LVEF fell below 50% ([2]; Phase 1): ≤ 24 h
- E, Mean ([2]; SAD 50 mg (n = 11), […]): 64 cm/s
- A, CFB Mean [2, 4]: 2.5 cm/s
- E, CFB Mean [2, 4]: -2.7 cm/s
- Heart rate, CFB Mean [2, 4]: 0.5 bpm
- IVCT, CFB Mean [2, 4]: 0.4 ms
- IVRT, CFB Mean [2, 4]: 0.5 ms
- LAV, CFB Mean [2, 4]: 0 mL
- LV EDV, CFB Mean [2, 4]: 6.6 mL
- LV ESV, CFB Mean [2, 4]: 8.1 mL
- LV ET, CFB Mean [2, 4]: 1.9 ms
- LV SV, CFB Mean [2, 4]: -6.2 mL
- LVEF, CFB Mean [2, 4]: −5.8%
- e′ lateral, CFB Mean [2, 4]: -1.3 cm/s
- participants with absolute reduction in LVEF of ≥5% from baseline ([2]; SAD 1-, 10-, or 25-mg cohorts): no participants
- participants with reduction in LVEF to <50% ([2]; SAD 50-mg cohort (2 of 11)): 18%
- LVEF of the participants with LVEF <50% ([2]; SAD 50-mg cohort, 2 participants, core laboratory assessment): 48.2% and 45.5%
- mean maximum reduction in LVEF ([2]; SAD 50-mg group, […] post dose): 5.8%
- participants with reduction in LVEF to <50% ([2]; SAD 75-mg cohort (1 of 1)): 100%
- relationship of plasma concentration to change in LVEF ([2]; SAD cohorts): trend toward a decrease in LVEF
- participants with LVEF <45% ([2]; SAD cohorts, core laboratory): Only the participant in the 75-mg cohort experienced LVEF <45%
- reduction in LVEF to <50% ([2]; any of the MAD cohorts, core laboratory assessment): not observed
- decrease in mean LVEF from baseline (least-squares mean difference) ([2]; single 50-mg dose, […] post dose): 5.5%
- LVEF after reduction ([2]; single dose of 75 mg, 1 participant, approximately […] after dosing): 34.1%
- reduction in LVEF ([2]; single participant, 75 mg, […] post dose): 31.5%
- NT pro-BNP reduction from baseline [3]: 70%

Reference: US20240115554A1, “METHODS FOR TREATING OBSTRUCTIVE HYPERTROPHIC CARDIOMYOPATHY” (Cytokinetics, Incorporated, priority 2022, published 2024)
